Laboratory results as given in US8871753B2, “Macrocyclic compounds and their use as kinase inhibitors” (Incyte Corporation, priority 2008, dated 2014).
Structures can show the parent of a compound that is named as a salt. Where two headings read alike, the source gives them in different places.

How the values were obtained:
Format in all cases: biochemical
[1] = target: T1, Recombinant Human Anaplastic Lymphoma Kinase (Homo sapiens, UniProt Q9UM73); experiment: ALK HTRF kinase assay; settings: for IC50: Table D1
T1 construct: purchased Invitrogen, Carlsbad, Calif
T1 sequence (Q9UM73 19-1620): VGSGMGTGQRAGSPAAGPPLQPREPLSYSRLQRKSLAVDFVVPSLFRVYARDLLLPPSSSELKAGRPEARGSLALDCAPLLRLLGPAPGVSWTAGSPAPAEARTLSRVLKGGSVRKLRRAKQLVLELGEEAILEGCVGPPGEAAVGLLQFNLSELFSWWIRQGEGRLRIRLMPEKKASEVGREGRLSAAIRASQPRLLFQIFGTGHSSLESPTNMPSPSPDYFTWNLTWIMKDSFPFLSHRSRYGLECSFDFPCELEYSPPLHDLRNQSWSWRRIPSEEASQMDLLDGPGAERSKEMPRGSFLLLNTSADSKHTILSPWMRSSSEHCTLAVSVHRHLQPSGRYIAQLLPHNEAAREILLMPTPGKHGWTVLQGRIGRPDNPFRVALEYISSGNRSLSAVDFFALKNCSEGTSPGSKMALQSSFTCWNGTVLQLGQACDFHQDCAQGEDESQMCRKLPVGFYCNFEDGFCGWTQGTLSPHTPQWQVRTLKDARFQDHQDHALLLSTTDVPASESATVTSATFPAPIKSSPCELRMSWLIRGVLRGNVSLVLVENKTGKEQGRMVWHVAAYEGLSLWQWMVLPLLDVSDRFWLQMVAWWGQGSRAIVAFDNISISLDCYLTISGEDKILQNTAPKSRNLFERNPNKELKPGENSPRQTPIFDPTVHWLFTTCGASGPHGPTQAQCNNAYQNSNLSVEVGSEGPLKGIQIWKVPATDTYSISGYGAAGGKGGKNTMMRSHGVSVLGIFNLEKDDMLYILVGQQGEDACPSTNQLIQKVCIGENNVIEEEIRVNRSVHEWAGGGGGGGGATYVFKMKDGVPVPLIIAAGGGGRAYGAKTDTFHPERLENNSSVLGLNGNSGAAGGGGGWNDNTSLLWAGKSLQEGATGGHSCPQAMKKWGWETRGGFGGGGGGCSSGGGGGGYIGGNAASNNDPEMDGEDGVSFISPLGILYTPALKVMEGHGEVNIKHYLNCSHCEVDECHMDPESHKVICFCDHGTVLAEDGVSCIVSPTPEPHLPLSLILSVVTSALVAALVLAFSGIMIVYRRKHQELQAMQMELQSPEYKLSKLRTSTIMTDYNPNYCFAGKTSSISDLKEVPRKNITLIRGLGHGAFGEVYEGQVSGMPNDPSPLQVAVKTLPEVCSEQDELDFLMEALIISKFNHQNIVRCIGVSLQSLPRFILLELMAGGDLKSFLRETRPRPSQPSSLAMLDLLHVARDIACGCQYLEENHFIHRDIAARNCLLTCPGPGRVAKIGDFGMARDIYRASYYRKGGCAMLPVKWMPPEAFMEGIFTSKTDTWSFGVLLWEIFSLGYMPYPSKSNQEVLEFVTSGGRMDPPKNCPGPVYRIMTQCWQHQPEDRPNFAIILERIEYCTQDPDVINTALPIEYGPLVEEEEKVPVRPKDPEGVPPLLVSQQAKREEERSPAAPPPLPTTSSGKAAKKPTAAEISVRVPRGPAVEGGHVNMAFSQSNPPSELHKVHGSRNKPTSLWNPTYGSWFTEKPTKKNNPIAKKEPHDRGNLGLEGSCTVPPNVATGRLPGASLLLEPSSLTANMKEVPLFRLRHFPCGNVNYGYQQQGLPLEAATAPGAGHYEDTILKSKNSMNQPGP
Procedure, shortened: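 Readout was HTRF between a Eu-W1024 anti-phosphotyrosine antibody and streptavidin-APC bound to biotinylated peptide phosphorylated by recombinant human ALK. IC50 values came from a four-parameter logistic fit.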

[2] = target: T2, human JAK1 (a.a. 837-1142) (Homo sapiens, UniProt P23458); experiment: In vitro JAK kinase assay (HTRF, phosphorylation of a biotinylated peptide), JAK1; settings: read-out: JAK1 IC50
T2 construct: human JAK1 (a.a. 837-1142); His tag (N); made in house; host or cells: insect cells (baculovirus)
T2 sequence (P23458 849-1154): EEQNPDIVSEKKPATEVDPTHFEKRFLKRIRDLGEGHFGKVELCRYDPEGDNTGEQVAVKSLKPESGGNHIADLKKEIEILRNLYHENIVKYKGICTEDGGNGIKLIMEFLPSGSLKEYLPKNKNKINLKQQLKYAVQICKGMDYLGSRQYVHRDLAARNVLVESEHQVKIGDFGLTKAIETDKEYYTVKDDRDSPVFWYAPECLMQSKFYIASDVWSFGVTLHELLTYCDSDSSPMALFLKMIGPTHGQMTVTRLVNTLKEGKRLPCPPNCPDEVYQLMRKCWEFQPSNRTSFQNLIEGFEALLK
Procedure, shortened: (§1)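 Kinase activity was measured as phosphorylation of a biotinylated peptide, with ATP at 90 μM for JAK1, 30 μM for JAK2 and 3 μM for JAK3. Reactions ran 1 hr at room temperature, were stopped with EDTA plus SA-APC and Eu-Py20, and were read by HTRF after 40 minutes of antibody binding.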

[3] = target: T3, human JAK3 (a.a. 781-1124) (Homo sapiens, UniProt P52333); experiment: In vitro JAK kinase assay (HTRF, phosphorylation of a biotinylated peptide), JAK3
T3 construct: JAK3 (a.a. 781-1124); His tag (N); made in house; host or cells: insect cells (baculovirus)
T3 sequence (P52333 781-1124): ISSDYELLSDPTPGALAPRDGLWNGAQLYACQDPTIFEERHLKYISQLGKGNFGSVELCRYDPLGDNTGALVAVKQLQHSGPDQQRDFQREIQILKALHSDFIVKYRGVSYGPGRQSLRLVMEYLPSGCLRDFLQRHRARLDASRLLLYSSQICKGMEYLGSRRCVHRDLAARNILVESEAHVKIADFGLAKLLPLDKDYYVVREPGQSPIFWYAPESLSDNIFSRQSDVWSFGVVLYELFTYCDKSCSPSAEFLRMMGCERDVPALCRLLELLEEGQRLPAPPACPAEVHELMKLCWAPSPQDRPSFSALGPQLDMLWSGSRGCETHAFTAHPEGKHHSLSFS
Procedure, shortened: as §1

TYK2 = TYK2 (Homo sapiens, UniProt P29597); experiment: TYK2 kinase inhibition (Table A1)
Chain of TYK2 (P29597 whole entry): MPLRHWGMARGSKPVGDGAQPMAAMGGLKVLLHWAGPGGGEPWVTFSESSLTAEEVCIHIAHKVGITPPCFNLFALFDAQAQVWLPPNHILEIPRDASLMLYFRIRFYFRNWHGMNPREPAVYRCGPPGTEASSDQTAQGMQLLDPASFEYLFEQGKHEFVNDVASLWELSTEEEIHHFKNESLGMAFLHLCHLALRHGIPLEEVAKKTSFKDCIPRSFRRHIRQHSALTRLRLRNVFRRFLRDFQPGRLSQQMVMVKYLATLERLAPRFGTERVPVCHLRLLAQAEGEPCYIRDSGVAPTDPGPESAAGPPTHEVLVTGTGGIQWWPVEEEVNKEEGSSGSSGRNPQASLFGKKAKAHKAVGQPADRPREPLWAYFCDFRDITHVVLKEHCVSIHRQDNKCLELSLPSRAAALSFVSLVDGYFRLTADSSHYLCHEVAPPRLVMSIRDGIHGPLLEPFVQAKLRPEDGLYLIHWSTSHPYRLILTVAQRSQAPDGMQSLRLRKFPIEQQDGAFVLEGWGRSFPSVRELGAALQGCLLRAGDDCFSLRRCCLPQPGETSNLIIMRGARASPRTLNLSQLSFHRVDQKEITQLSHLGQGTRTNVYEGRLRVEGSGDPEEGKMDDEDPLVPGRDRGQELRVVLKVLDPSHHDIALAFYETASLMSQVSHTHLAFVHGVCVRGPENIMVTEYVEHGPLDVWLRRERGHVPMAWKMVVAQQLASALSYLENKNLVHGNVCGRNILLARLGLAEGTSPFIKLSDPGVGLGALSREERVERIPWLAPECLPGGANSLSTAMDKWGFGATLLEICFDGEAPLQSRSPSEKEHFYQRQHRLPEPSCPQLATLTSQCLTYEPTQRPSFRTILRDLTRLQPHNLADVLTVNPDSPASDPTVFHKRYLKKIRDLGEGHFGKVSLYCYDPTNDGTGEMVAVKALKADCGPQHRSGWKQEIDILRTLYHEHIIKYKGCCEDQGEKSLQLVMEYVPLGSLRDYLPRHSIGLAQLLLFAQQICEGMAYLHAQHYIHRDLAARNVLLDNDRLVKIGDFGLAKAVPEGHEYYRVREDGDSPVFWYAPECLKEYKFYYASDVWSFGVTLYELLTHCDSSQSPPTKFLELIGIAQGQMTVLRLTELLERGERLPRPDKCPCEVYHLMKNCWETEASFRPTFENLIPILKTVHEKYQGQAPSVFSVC

[4] = target: T4, human JAK2 (a.a. 828-1132) (Homo sapiens, UniProt O60674); experiment: In vitro JAK kinase assay (HTRF, phosphorylation of a biotinylated peptide), JAK2
T4 construct: JAK2 (a.a. 828-1132); His tag (N); made in house; host or cells: insect cells (baculovirus)
T4 sequence (O60674 828-1132): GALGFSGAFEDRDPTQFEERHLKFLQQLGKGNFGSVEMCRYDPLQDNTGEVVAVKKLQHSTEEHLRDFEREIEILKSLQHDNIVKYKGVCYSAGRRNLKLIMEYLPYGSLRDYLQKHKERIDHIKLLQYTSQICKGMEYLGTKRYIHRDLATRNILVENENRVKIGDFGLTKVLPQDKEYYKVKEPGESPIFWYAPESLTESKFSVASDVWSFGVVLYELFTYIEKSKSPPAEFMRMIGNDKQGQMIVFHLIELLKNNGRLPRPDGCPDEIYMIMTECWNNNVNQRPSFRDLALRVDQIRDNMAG
Procedure, shortened: as §1

[5] = compound at a concentration of 500 nM or 1 mM (not specified), cells shown as percentage
[6] = compound at 500 nM or 1 mM, 90 μM ATP
[7] = method AA1 (90 μM ATP) or AA2 (1000 μM ATP), not stated per value
[8] = method AA1 (3 μM ATP) or AA2 (1000 μM ATP), not stated per value
[9] = method AA1 (30 μM ATP) or AA2 (1000 μM ATP), not stated per value

Compound	IC50 ([1]; 90 μM ATP)	IC50 ([2]; Table D1)	IC50 ([3]; Table D1)	IC50 (TYK2; Table D1)	IC50 ([4]; Table D1)	ALK % of inhibition at a concentration of 500 nM or 1 mM [1, 6]	IC50 [2, 7]	IC50 [3, 8]	IC50 (TYK2)	IC50 [4, 9]	other results
O=C(NCCN1CCCCC1)Nc1ccc2cc1CCc1cccc(c1)Nc1ncc(Cl)c(n1)N2 [Example B258, N-[6-Chloro-2,4,8,22-tetraazatetracyclo[14.3.1.1(3,7).1(9,13)]docosa-1(20),3(22),4,6,9(21),10,12,16,18-nonaen-12-yl]-N′-(2-piperidin-1-ylethyl)urea bis(trifluoroacetate)]											ALK % of inhibition at a concentration of 500 nM or 1 mM [1, 5]: 29%; IC50 ([2]; Table B1): 4.9 nM; IC50 ([3]; Table B1): 83 nM; IC50 (TYK2; Table B1): 24 nM; IC50 ([4]; Table B1): 10 nM
NCCC(=O)Nc1ccc2cc1CCc1cccc(c1)Nc1ncc(Cl)c(n1)N2 [Example A108, 3-Amino-N-[6-chloro-2,4,8,22-tetraazatetracyclo[14.3.1.1(3,7).1(9,13)]docosa-1(20),3(22),4,6,9(21),10,12,16,18-nonaen-12-yl]propanamide bis(trifluoroacetate)]						32%	6 nM	26 nM	15 nM	32 nM	
Cc1ccnc(N2CCC(CC(=O)Nc3ccc4cc3CCc3cncc(c3)Nc3ncc(Cl)c(n3)N4)CC2)c1 [Example A176, N-[6-Chloro-2,4,8,18,22-pentaazatetracyclo[14.3.1.1(3,7).1(9,13)]docosa-1(20),3(22),4,6,9(21),10,12,16,18-nonaen-12-yl]-2-[1-(4-methylpyridin-2-yl)piperidin-4-yl]acetamide tris(trifluoroacetate)]						25%	51 nM	> 200 nM	> 200 nM	> 200 nM	
O=C(CC1CCNCC1)Nc1ccc2cc1CCc1cccc(c1)Nc1ncc(Cl)c(n1)N2 [Example A46, N-[6-Chloro-2,4,8,22-tetraazatetracyclo[14.3.1.1(3,7).1(9,13)]docosa-1(20), 3(22),4,6,9(21),10,12,16,18-nonaen-12-yl]-2-piperidin-4-ylacetamide bis(trifluoroacetate)]						20%	10 nM	49 nM	42 nM	16 nM	
O=C(Nc1ccc2cc1CCc1cccc(c1)Nc1ncc(Cl)c(n1)N2)N[C@H]1CCN(C(=O)c2ccno2)C1 [Example B230, N-[6-Chloro-2,4,8,22-tetraazatetracyclo[14.3.1.1(3,7).1(9,13)]docosa-1(20),3(22),4,6,9(21),10,12,16,18-nonaen-12-yl]-N′-[(3S)-1-(isoxazol-5-ylcarbonyl)pyrrolidin-3-yl]urea trifluoroacetate]											ALK % of inhibition at a concentration of 500 nM or 1 mM [1, 5]: 11%; IC50 ([2]; Table B1): 2 nM; IC50 ([3]; Table B1): 50 nM; IC50 (TYK2; Table B1): 15 nM; IC50 ([4]; Table B1): 7 nM

More lines, main results first:

IC50 ([1]; 90 μM ATP)	IC50 ([2]; Table D1)	IC50 ([3]; Table D1)	IC50 (TYK2; Table D1)	IC50 ([4]; Table D1)	ALK % of inhibition at a concentration of 500 nM or 1 mM [1, 6]	IC50 [2, 7]	IC50 [3, 8]	IC50 (TYK2)	IC50 [4, 9]	Compound	other results
> 10000 nM	93 nM	135 nM	88 nM	61 nM						Clc1cnc2nc1Nc1cccc(c1)OCCSc1cccc(c1)N2 [Example D15, 6-Chloro-14-oxa-17-thia-2,4,8,24-tetraazatetracyclo[16.3.1.1(3,7).1(9,13)]tetracosa-1(22),3(24),4,6,9(23),10,12,18,20-nonaene trifluoroacetate]	
> 1000 nM	18 nM	16 nM	6.4 nM	5.1 nM						O=C(Nc1ccccc1)Nc1cc2cc(c1)OCCSc1cccc(c1)Nc1nc(ncc1Cl)N2 [Example D65, N-[6-Chloro-17-oxa-14-thia-2,4,8,24-tetraazatetracyclo[16.3.1.1(3,7).1(9,13)]tetracosa-1(22),3(24),4,6,9(23),10,12,18,20-nonaen-20-yl]-N′-phenylurea trifluoroacetate]	
620 nM	13 nM	16 nM	14 nM	9.6 nM						Clc1cnc2nc1Nc1cccc(c1)SCc1cccc(c1)N2 [Example D1, 6-Chloro-14-thia-2,4,8,22-tetraazatetracyclo[14.3.1.1(3,7).1(9,13)]docosa-1(20),3(22),4,6,9(21),10,12,16,18-nonaene trifluoroacetate]	
